Where two headings read alike, the source gives them in different places.

For test [1], the target named is T1, κ opioid receptor (Homo sapiens, UniProt P41145). The experiment in a line: biochemical. The note with it: HEK-293 or CHO cells. On the set-up: expressed in transfected cells; host or cells: HEK 293 (in-house membrane prep). It is filed as binding.
Another test deals with μ-opioid receptor (Homo sapiens, UniProt P35372). The experiment in a line: μ-opioid receptor [35S]GTPγS functional assay, U-2 OS cells. It is filed as biochemical. On the set-up: expressed in transfected cells; host or cells: U-2 OS.
Test [2] deals with T1, κ opioid receptor. Kind of test: κ-opioid receptor [35S]GTPγS functional assay, U-2 OS cells. It is filed as biochemical. On the set-up: expressed in transfected cells; host or cells: U-2 OS (in-house membranes). The note with it: for Emax: read-out: GTPγS κ Emax. For orientation: Binding of GTPγS marks nucleotide exchange on a G protein.
Description: Membranes from recombinant HEK-293 cells, CHO or U-2 OS cells expressing the recombinant human κ opioid receptor (κ) were prepared by lysing cells in ice cold hypotonic buffer (2.5 mM MgCl2, 50 mM HEPES, pH 7.4) (10 mL/10 cm dish) followed by homogenization with a tissue grinder/Teflon pestle. […] Membranes were collected by centrifugation at 30,000×g for 15 min at 4° C. and pellets were resuspended in hypotonic buffer to a final concentration of 1-3 mg/mL. Protein concentrations were determined using the BioRad protein assay reagent with bovine serum albumen as standard. Aliquots of κ receptor membranes were stored at −80° C.
Plates were incubated for 30 min at a temperature of about 25° C. with shaking.
The mark [3] stands for this setting: U-2 OS cells, read-out: GTPγS μ EC50.
The mark [4] stands for this setting: U-2 OS cells, read-out: GTPγS κ EC50.
Where [5] appears, read: U-2 OS cells, relative to U69,593.
The mark [6] stands for this setting: GTPγS μ EC50, U-2 OS cells, bound in μM.
Where [7] appears, read: read-out: GTPγS μ Emax, U-2 OS cells, relative to DAMGO.
The mark [8] stands for this setting: U-2 OS cells, relative to DAMGO, read-out: GTPγS μ Emax.
The mark [9] stands for this setting: U-2 OS cells, bound in μM, read-out: GTPγS κ EC50.
The mark [10] stands for this setting: U-2 OS cells, bound in μM, read-out: GTPγS μ EC50.

T1 sequence (P41145 whole entry): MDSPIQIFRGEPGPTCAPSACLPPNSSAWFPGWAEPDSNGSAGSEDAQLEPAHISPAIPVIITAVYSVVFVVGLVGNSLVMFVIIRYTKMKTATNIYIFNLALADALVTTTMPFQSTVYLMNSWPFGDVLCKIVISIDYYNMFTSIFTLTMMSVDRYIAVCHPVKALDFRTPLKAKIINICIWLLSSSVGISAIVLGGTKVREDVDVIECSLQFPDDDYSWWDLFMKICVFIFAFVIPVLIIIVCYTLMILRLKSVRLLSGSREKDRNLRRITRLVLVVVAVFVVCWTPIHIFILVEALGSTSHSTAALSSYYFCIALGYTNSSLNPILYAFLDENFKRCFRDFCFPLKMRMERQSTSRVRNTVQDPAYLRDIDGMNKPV
μ-opioid receptor, sequence (P35372 whole entry, species assumed): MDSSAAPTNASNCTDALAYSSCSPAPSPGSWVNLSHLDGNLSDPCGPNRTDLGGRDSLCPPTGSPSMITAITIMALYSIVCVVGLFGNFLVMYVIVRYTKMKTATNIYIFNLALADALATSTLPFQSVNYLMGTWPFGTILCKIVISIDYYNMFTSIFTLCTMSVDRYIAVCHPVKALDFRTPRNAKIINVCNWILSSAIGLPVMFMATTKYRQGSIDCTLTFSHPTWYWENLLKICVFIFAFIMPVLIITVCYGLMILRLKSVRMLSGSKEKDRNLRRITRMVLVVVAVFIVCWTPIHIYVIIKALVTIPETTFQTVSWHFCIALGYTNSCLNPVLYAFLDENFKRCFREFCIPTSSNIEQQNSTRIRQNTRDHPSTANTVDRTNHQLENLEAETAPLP

For the compound `CN[C@H]1C2Cc3ccc(OC)cc3[C@@]1(C)CCN2C` [Compound 9, (6R,11R)-8-methoxy-N,3,6-trimethyl-1,2,3,4,5,6-hexahydro-2,6-methanobenzo[d]azocin-11-amine], the affinity at κ opioid receptor [1] corresponds to a Ki of 18.9 ± 3.13 µM.

`COc1ccc2c(c1)[C@@]1(C)CCN(C)C(C2)[C@H]1N(C)C(=O)/C=C/c1ccoc1` [Compound 20, (E)-3-(furan-3-yl)-N-((6R,11S)-8-methoxy-3,6-dimethyl-1,2,3,4,5,6-hexahydro-2,6-methanobenzo[d]azocin-11-yl)-N-methylacrylamide]: the Ki on κ opioid receptor [1] is 1.95 ± 0.538 µM.

For the compound `CN(C)C(=O)C(CCN1CC[C@]2(C)c3cc(O)ccc3CC1[C@@H]2O)(c1ccccc1)c1ccccc1` [Compound 21, 4-((6R,11R)-8,11-dihydroxy-6-methyl-1,2,5,6-tetrahydro-2,6-methanobenzo[d]azocin-3(4H)-yl)-N,N-dimethyl-2,2-diphenylbutanamide], affinity on κ opioid receptor [1] was put at a Ki of 1.22 ± 0.332 µM.

The compound `COc1ccc2c(c1)[C@@]1(C)CCN(C)C(C2)[C@@H]1CC(=O)O` [Compound 15, 2-((6S,11R)-8-methoxy-3,6-dimethyl-1,2,3,4,5,6-hexahydro-2,6-methanobenzo[d]azocin-11-yl)acetic acid] displayed a Ki on κ opioid receptor [1] (bound in μM) of more than 20 µM.

`COc1ccc2c(c1)[C@@]1(C)CCN(C)C(C2)C1NC(=O)/C=C/c1ccoc1` (stereo in doubt) [Compound 23, (E)-3-(furan-3-yl)-N-((2R,6R,11S)-8-methoxy-3,6-dimethyl-1,2,3,4,5,6-hexahydro-2,6-methanobenzo[d]azocin-11-yl)acrylamide] came in with a Ki at κ opioid receptor [1] of 13.2 µM.

In the case of `CN1CC[C@@]2(C)c3cc(O)ccc3C[C@@H]1[C@@H]2N(C)CC1CCN(C(=O)OC(C)(C)C)CC1` [Compound 108, tert-butyl 4-((((2R,6S,11R)-8-hydroxy-3,6-dimethyl-1,2,3,4,5,6-hexahydro-2,6-methanobenzo[d]azocin-11-yl)(methyl)amino)methyl)piperidine-1-carboxylate], the EC50 at μ-opioid receptor (setting [3]) was 0.00039 ± 0.00011 µM; on κ opioid receptor [2] (setting [4]), 0.00327 ± 0.00069 µM. The “GTPγS μ Emax” value on μ-opioid receptor (U-2 OS cells, relative to DAMGO) was found to be 80.80 ± 2.50%. Further, the Emax on κ opioid receptor [2] (setting [5]) stood at 18.8 ± 1.25%.

Turning to `C[C@]12CCN(CC3CC3)[C@H](Cc3ccc(O)cc31)[C@@H]2NC(=O)c1ccsc1` [Compound 127, N-((2R,6S,11R)-3-(cyclopropylmethyl)-8-hydroxy-6-methyl-1,2,3,4,5,6-hexahydro-2,6-methanobenzo[d]azocin-11-yl)thiophene-3-carboxamide], the values for the EC50 at μ-opioid receptor (setting [6]) and at κ opioid receptor [2] were more than 20 µM and 0.947 ± 0.068 µM, respectively. Also, the Emax at μ-opioid receptor (setting [7]) came to 3.67 ± 1.2%; at κ opioid receptor [2], 93 ± 3.51%.

Regarding `CN1CC[C@@]2(C)c3cc(O)ccc3C[C@@H]1[C@@H]2N(C)S(=O)(=O)c1cccc(C(F)(F)F)c1` [Compound 132, N-((2R,6S,11R)-8-hydroxy-3,6-dimethyl-1,2,3,4,5,6-hexahydro-2,6-methanobenzo[d]azocin-11-yl)-N-methyl-3-(trifluoromethyl)benzenesulfonamide], the figures for the EC50 on μ-opioid receptor (setting [3]) and at κ opioid receptor [2] (setting [4]) were 0.00303 ± 0.00017 µM and 0.0114 ± 0.00158 µM, respectively. Moreover, the Emax on μ-opioid receptor (setting [8]) amounted to 95.3 ± 2.6%; at κ opioid receptor [2] (setting [5]) it was 89 ± 5.69%.

With `CN1CC[C@@]2(C)c3cc(O)ccc3C[C@@H]1[C@@H]2N(C)C(=O)C1CCCCC1` [Compound 121, N-((2R,6S,11R)-8-hydroxy-3,6-dimethyl-1,2,3,4,5,6-hexahydro-2,6-methanobenzo[d]azocin-11-yl)-N-methylcyclohexanecarboxamide], the EC50 at μ-opioid receptor (setting [3]) worked out at 0.126 ± 0.0154 µM; on κ opioid receptor [2] (setting [4]), 0.604 ± 0.0681 µM. Besides, the Emax at μ-opioid receptor (setting [8]) was determined as 91.7 ± 4.18%; at κ opioid receptor [2] (setting [5]), 18.3 ± 0.88%.

For `CN1CC[C@@]2(C)c3cc(O)ccc3C[C@@H]1[C@H]2N(C)S(=O)(=O)c1cccc(C(F)(F)F)c1` [Compound 131, N-((2R,6S,11S)-8-hydroxy-3,6-dimethyl-1,2,3,4,5,6-hexahydro-2,6-methanobenzo[d]azocin-11-yl)-N-methyl-3-(trifluoromethyl)benzenesulfonamide], the EC50 is 0.29 ± 0.00532 µM at μ-opioid receptor (setting [3]) and more than 20 µM on κ opioid receptor [2] (setting [9]). For the same compound, the Emax at μ-opioid receptor (setting [8]) was 69 ± 1%; on κ opioid receptor [2] (setting [5]) it was 0%.

Regarding `CN(C(=O)Nc1nc2cc(F)ccc2s1)[C@@H]1[C@H]2Cc3ccc(O)cc3[C@]1(C)CCN2CC1CC1` [Compound 134, 1-((2R,6S,11S)-3-(cyclopropylmethyl)-8-hydroxy-6-methyl-1,2,3,4,5,6-hexahydro-2,6-methanobenzo[d]azocin-11-yl)-3-(5-fluorobenzo[d]thiazol-2-yl)-1-methylurea], the EC50 on μ-opioid receptor (GTPγS μ EC50, U-2 OS cells) was 0.00147 ± 0.00058 µM; at κ opioid receptor [2] it was more than 20 µM. For the same compound, the results for the Emax on μ-opioid receptor (setting [7]) and on κ opioid receptor [2] were 16 ± 0.71% and 90%, respectively.

With `CN1CC[C@@]2(C)c3cc(O)ccc3C[C@@H]1[C@H]2NCCCNC(=O)OC(C)(C)C` [Compound 111, tert-butyl (3-(((2R,6S,11S)-8-hydroxy-3,6-dimethyl-1,2,3,4,5,6-hexahydro-2,6-methanobenzo[d]azocin-11-yl)amino)propyl)carbamate], the EC50 on μ-opioid receptor (setting [3]) came out at 0.00223 ± 0.00012 µM; on κ opioid receptor [2] (setting [4]), 0.0426 ± 0.00764 µM. The Emax at μ-opioid receptor (setting [8]) is 64 ± 4%; at κ opioid receptor [2] (setting [5]), 22.7 ± 2.33%.

For the compound `CN1CC[C@@]2(C)c3cc(O)ccc3C[C@@H]1[C@H]2NCCc1ccc(C(C)(C)C)cc1` [Compound 105, (2R,6S,11S)-11-((4-(tert-butyl)phenethyl)amino)-3,6-dimethyl-1,2,3,4,5,6-hexahydro-2,6-methanobenzo[d]azocin-8-ol], the EC50 on μ-opioid receptor (setting [3]) was 0.00022 ± 5.2e-05 µM; on κ opioid receptor [2] (setting [9]), more than 20 µM. Also, the Emax worked out at 32.7 ± 1.76% at μ-opioid receptor (setting [8]) and 1% at κ opioid receptor [2] (setting [5]).

With `CN1CC[C@@]2(C)c3cc(O)ccc3C[C@@H]1[C@H]2N(C)C(=O)C1CCCCC1` [Compound 120, N-((2R,6S,11S)-8-hydroxy-3,6-dimethyl-1,2,3,4,5,6-hexahydro-2,6-methanobenzo[d]azocin-11-yl)-N-methylcyclohexanecarboxamide], the values for the concentration for a half-maximal effect (EC50) at μ-opioid receptor (setting [3]) and on κ opioid receptor [2] (setting [4]) were 2.94 ± 0.481 µM and 2.86 ± 0.231 µM, respectively. For the same compound, the Emax amounted to 76.3 ± 3.48% at μ-opioid receptor (setting [8]) and 62.3 ± 4.91% at κ opioid receptor [2] (setting [5]).

Consider `CN1CC[C@@]2(C)c3cc(O)ccc3C[C@@H]1[C@@H]2N(C)C(=O)Cc1ccsc1` [Compound 123, N-((2R,6S,11R)-8-hydroxy-3,6-dimethyl-1,2,3,4,5,6-hexahydro-2,6-methanobenzo[d]azocin-11-yl)-N-methyl-2-(thiophen-3-yl)acetamide], for which, at μ-opioid receptor (setting [7]), the Emax came to 104 ± 3.06%. At κ opioid receptor [2], the midpoint of the response, the EC50, lay at 0.113 ± 0.0058 µM and the Emax was 74 ± 3.06%.

As to `CN1CC[C@@]2(C)c3cc(O)ccc3C[C@@H]1[C@@H]2N(C)C(=O)Nc1nc2cc(F)ccc2s1` [Compound 140, 3-(5-fluorobenzo[d]thiazol-2-yl)-1-((2R,6S,11R)-8-hydroxy-3,6-dimethyl-1,2,3,4,5,6-hexahydro-2,6-methanobenzo[d]azocin-11-yl)-1-methylurea], the values for the EC50 on μ-opioid receptor (setting [3]) and on κ opioid receptor [2] (setting [4]) were 0.0001 ± 1e-05 µM and 0.00468 ± 0.0004 µM, respectively. Moreover, the Emax on μ-opioid receptor (setting [8]) came out at 82 ± 0.91%; at κ opioid receptor [2] (setting [5]), 107 ± 4.4%.

On to `C[C@]12CCN(CC3CC3)[C@H](Cc3ccc(O)cc31)[C@H]2NCCc1ccc(S(N)(=O)=O)cc1` [Compound 97, 4-(2-(((2R,6S,11S)-3-(cyclopropylmethyl)-8-hydroxy-6-methyl-1,2,3,4,5,6-hexahydro-2,6-methanobenzo[d]azocin-11-yl)amino)ethyl)benzenesulfonamide], for which the EC50 on μ-opioid receptor (setting [10]) and on κ opioid receptor [2] (setting [9]) was more than 20 µM in each case. Also, the Emax at μ-opioid receptor (setting [8]) came to 2.5%; on κ opioid receptor [2] (setting [5]), 0%.

On to `CCC[C@@]12CCN(C)C(Cc3ccc(OC)cc31)[C@H]2N(C)C(=O)Nc1ccc(CN)cc1` [Compound 138, 3-(4-(aminomethyl)phenyl)-1-((6R,11S)-8-methoxy-3-methyl-6-propyl-1,2,3,4,5,6-hexahydro-2,6-methanobenzo[d]azocin-11-yl)-1-methylurea], for which the EC50 on μ-opioid receptor (setting [10]) and on κ opioid receptor [2] (setting [9]) was more than 20 µM throughout. In addition, the values for the Emax at μ-opioid receptor (setting [8]) and on κ opioid receptor [2] (setting [5]) were 45.3 ± 2.33% and 35.5 ± 2.06%, respectively.

In the case of `CN1CC[C@@]2(C)c3cc(O)ccc3C[C@@H]1[C@H]2NCC1CCN(C(=O)OC(C)(C)C)CC1` [Compound 106, tert-butyl 4-((((2R,6S,11S)-8-hydroxy-3,6-dimethyl-1,2,3,4,5,6-hexahydro-2,6-methanobenzo[d]azocin-11-yl)amino)methyl)piperidine-1-carboxylate], the EC50 on μ-opioid receptor (setting [6]) and on κ opioid receptor [2] was more than 20 µM each time. Besides, the Emax at μ-opioid receptor (setting [7]) was 2.5%; at κ opioid receptor [2], 1%.

As for `CN1CC[C@@]2(C)c3cc(O)ccc3C[C@@H]1[C@@H]2N(C)C(=O)/C=C/c1cccnc1` [Compound 122, (E)-N-((2R,6S,11R)-8-hydroxy-3,6-dimethyl-1,2,3,4,5,6-hexahydro-2,6-methanobenzo[d]azocin-11-yl)-N-methyl-3-(pyridin-3-yl)acrylamide], the values for the EC50 at μ-opioid receptor (setting [3]) and at κ opioid receptor [2] (setting [4]) were 0.00036 ± 1e-05 µM and 0.0152 ± 0.00263 µM, respectively. Moreover, the Emax on μ-opioid receptor (setting [8]) is 102 ± 1.2%; on κ opioid receptor [2] (setting [5]), 94.5 ± 0.65%.

Regarding `CC(C)CCC(=O)N(C)[C@H]1[C@H]2Cc3ccc(O)cc3[C@]1(C)CCN2C` [Compound 116, N-((2R,6S,11R)-8-hydroxy-3,6-dimethyl-1,2,3,4,5,6-hexahydro-2,6-methanobenzo[d]azocin-11-yl)-N,4-dimethylpentanamide], the EC50 turned out to be 0.00312 ± 0.00015 µM on μ-opioid receptor (setting [3]) and 0.0694 ± 0.00537 µM at κ opioid receptor [2] (setting [4]). Further, the Emax was 104 ± 2.96% on μ-opioid receptor (setting [8]) and 56.3 ± 3.93% at κ opioid receptor [2] (setting [5]).

What is called Ki is a measure of affinity in units of concentration, obtained from inhibition or displacement. Lower therefore signals higher affinity. By EC50 is commonly meant the midpoint of the concentration-response curve. A word on the Emax: it is the greatest response seen or fitted, relative to the assay's reference.

Values taken from patent US10138207B2, “Benzomorphan analogs and the use thereof” (priority 2012, dated 2018).
